Assay results published in US12016843B2, “Compositions and methods for the treatment of amyotrophic lateral sclerosis, parkinson's disease, parkinson's disease with dementia, dementia with lewy bodies, and multiple system atrophy” (priority 2019, dated 2024).

How the values were obtained:
[1] = test system: SOD1 G93A high copy transgenic mice; assay: Forelimb grip strength test in SOD1 G93A mouse model of ALS; assay type: in vivo; settings: 10 weeks on drug; for grip strength Mean Diff. (Dunnett's multiple comparisons test, Vehicle vs. 0.5 mg/kg): 0.5 mg/kg daily ip; for grip strength Mean Diff. (Dunnett's multiple comparisons test, Vehicle vs. 5.0 mg/kg): 5.0 mg/kg daily ip
Experimental: (§1) Study Design. Three experimental groups of n=20 (10 male, 10 female) SOD1 G93A high copy transgenic mice were dosed daily via intraperitoneal administration of vehicle control; (R)-2-amino-N—((S)-1-(((S)-5-amino-1-(3-benzyl-1,2,4-oxadiazol-5-yl)pentyl)amino)-3-(4-hydroxy-2,6-dimethylphenyl)-1-oxopropan-2-yl)-5-guanidinopentanamide (as its tris-HCl salt-(Ia)) at 0.5 mg/kg; or (R)-2-amino-N—((S)-1-(((S)-5-amino-1-(3-benzyl-1,2,4-oxadiazol-5-yl)pentyl)amino)-3-(4-hydroxy-2,6-dimethylphenyl)-1-oxopropan-2-yl)-5-guanidinopentanamide (as its tris-HCl salt—(Ia)) at 5.0 mg/kg. Animals were dosed beginning at 8 weeks of age and dosing was continued until humane end of life (defined by the inability of animal to right itself from either side within 30 seconds when placed on its side). Experimental endpoints and in-life collections and observations were as follows: • 1. Bodyweight measurement. Daily recording of weight. • 2. Neurological scoring. Weekly NeuroScore, a qualitative assessment of neurological disease progression based upon a five-point grading system. Scoring is defined as follows: • Score 0: Full extension of hind legs away from the lateral midline when the mouse is suspended by its tail, and the mouse can hold this extension for 2 seconds, being suspended 3 times consecutively. • Score 1: Collapse or partial collapse of the leg extension toward the lateral midline or trembling of hind legs during the tail suspension. • Score 2: Toes curl under at least twice during walking of 12 inches, or any part of the foot is dragging along the cage bottom or table. • Score 3: Rigid paralysis or minimal joint movement, the foot is not being used for forward motion. • Score 4: The mouse cannot right itself within 30 sec from either side. • 3. Grip strength test. Weekly forelimb grip strength, performed as follows: • a. Subjects are weighed and acclimated to the testing room for at least 60 min. • b. Equipment: Bioseb grip strength meter equipped with a grid for grasping that is suited for mice. • c. Mice are lowered towards the grid by their tails to allow for visual placing and for the mouse to grip the grid with their forepaws. • d. Subjects are firmly pulled horizontally away from the grid (parallel to the bench) for 3 consecutive trials with a brief (approximately 30 sec) rest period on the bench between trials. • e. The average force in grams of the 3 forepaw and 3 all-paws trials are analyzed with and without normalization to body weight. • 4. Retro-orbital blood collection. Bi-weekly retroorbital eye bleeds to determine drug exposure levels as well as levels of neurofilament light chain, a biomarker of axonal damage shown to correlate with ALS disease progression in human patients. Briefly, mice are sedated with isoflurane (5% induction, 2% maintenance) in O2. […]
Systemic administration of (R)-2-amino-N—((S)-1-(((S)-5-amino-1-(3-benzyl-1,2,4-oxadiazol-5-yl)pentypamino)-3-(4-hydroxy-2,6-dimethylphenyl)-1-oxopropan-2-yl)-5-guanidinopentanamide attenuates decline in muscle strength in ALS mouse model. As shown in FIG. 2A and Table 1A, systemic administration of (R)-2-amino-N—((S)-1-(((S)-5-amino-1-(3-benzyl-1,2,4-oxadiazol-5-yl)pentyl)amino)-3-(4-hydroxy-2,6-dimethylphenyl)-1-oxopropan-2-yl)-5-guanidinopentanamide (as its tris-HCl salt—(Ia)) attenuates the loss of grip strength in male SOD1 G93A transgenic mice. Grip strength values were determined at baseline (week 8) and through end of life for each animal. […]

[2] = test system: SOD1 G93A high copy transgenic mice; assay: Plasma neurofilament light chain (NfL) levels in SOD1 G93A mouse model of ALS; assay type: in vivo; settings: for plasma NfL levels Mean Diff. (Dunnett's multiple comparisons test, Vehicle vs. 0.5 mg/kg): 0.5 mg/kg daily ip; for plasma NfL levels Mean Diff. (Dunnett's multiple comparisons test, Vehicle vs. 0.5 mg/kg) / plasma NfL levels Mean Diff. (Dunnett's multiple comparisons test, Vehicle vs. 5.0 mg/kg): 10 weeks; for plasma NfL levels Mean Diff. (Dunnett's multiple comparisons test, Vehicle vs. 5.0 mg/kg): 5.0 mg/kg daily ip
Experimental: as §1, with “O2. When they reach the plane of anesthesia, mice are withdrawn from isoflurane and blood is collected with a 25 μL glass capillary tube from the retro-orbital sinus, alternating sides for successive bleeds. 200 μL of whole blood is collected in a BD K2EDTA Microtainer collection tube containing 3.5 μL of 25X HALT protease inhibitor cocktail and kept on ice for processing. Mice are allowed to recover from the anesthesia, then returned to their home cage. Results” for “O2.”

## Cc1cc(O)cc(C)c1C[C@H](NC(=O)[C@H](N)CCCNC(=N)N)C(=O)N[C@@H](CCCCN)c1nc(Cc2ccccc2)no1.Cl.Cl.Cl [Compound Ia, (R)-2-amino-N—((S)-1-(((S)-5-amino-1-(3-benzyl-1,2,4-oxadiazol-5-yl)pentyl)amino)-3-(4-hydroxy-2,6-dimethylphenyl)-1-oxopropan-2-yl)-5-guanidinopentanamide·3HCl]
[1]; female SOD1 G93A mice
  grip strength Mean Diff. (Dunnett's multiple comparisons test, Vehicle vs. 0.5 mg/kg): −6.081
  grip strength Mean Diff. (Dunnett's multiple comparisons test, Vehicle vs. 5.0 mg/kg): −7.905
[1]; male SOD1 G93A mice
  grip strength Mean Diff. (Dunnett's multiple comparisons test, Vehicle vs. 0.5 mg/kg): −0.7940
  grip strength Mean Diff. (Dunnett's multiple comparisons test, Vehicle vs. 5.0 mg/kg): −11.90
[1]; male SOD1 G93A mice, 5.0 mg/kg, p=0.08
  loss of grip strength: trend in protection from loss of grip strength
[2]; female SOD1 G93A mice
  plasma NfL levels Mean Diff. (Dunnett's multiple comparisons test, Vehicle vs. 0.5 mg/kg): −1075
  plasma NfL levels Mean Diff. (Dunnett's multiple comparisons test, Vehicle vs. 5.0 mg/kg): 1291
[2]; male SOD1 G93A mice
  plasma NfL levels Mean Diff. (Dunnett's multiple comparisons test, Vehicle vs. 0.5 mg/kg): 897.8
  plasma NfL levels Mean Diff. (Dunnett's multiple comparisons test, Vehicle vs. 5.0 mg/kg): 3469
[2]; male SOD1 G93A mice, 5.0 mg/kg, 10 weeks of administration
  accumulation of NfL in plasma: statistically significant impact on the accumulation of NfL
